Values of other authors as cited in patent publication US7959936B2, “Emulsifications-stable pesticidal composition” (Syngenta Crop Protection, Inc., priority 2003, dated 2011).
Read-outs that look alike come from different tables or passages of the source.

Experiments:
[1] = 25° C
Rabbit [2] = tested on: Rabbit
Rabbit [3] = tested on: Rabbit; remark: listed apart in the source
Rabbit [4] = tested on: Rabbit; remark: listed apart in the source
Rabbit [5] = conditions: no unit printed for this line

2-(thiazol-4-ine)benzimidazole [Thiabendazole]
Acute oral toxicity (LD50: mg/kg) (Rat): 3,100 mg/kg | Vapor pressure [1]: Vapor pressure: 4.6 × 10^−4 mPa (25° C) | TLm (96 hrs) (Bluegill): 19 mg/L | Antigenicity (Guinea pig): None | Solubility, 1,2-dichloroethane (20° C.): 810 µg/mL | Solubility, Acetone (20° C.): 2430 µg/mL | Solubility, Ethyl acetate (20° C.): 1490 µg/mL | Solubility, Methanol (20° C.): 8280 µg/mL | Solubility, Xylene (20° C.): 130 µg/mL | Solubility, n-Hexane (20° C.): <10 µg/mL | Solubility, n-Octanol (20° C.): 3910 µg/mL | Solubility, Water (20° C., pH4): 160 µg/mL | Solubility, Water (20° C., pH7): 30 µg/mL | solubility in short-chain alcohols (such as methyl alcohol): comparatively satisfactory solubility | solubility in water (water): practically insoluble | solubility in typical industrial solvents (xylene and petroleum-based solvents): only slightly soluble | Acute oral toxicity (LD50: mg/kg) (Rabbit [2]): 3,800 mg/kg | Acute oral toxicity LD50 (mg/kg) (Quail): <2,250 mg/kg | Irritability Skin (Rabbit [3]): Non-irritating | Irritability Mucous membrane (Rabbit [4]): Non-irritating | Acute oral toxicity (LD50: mg/kg) (Mouse): 3,600 mg/kg | Acute percutaneous toxicity (Rabbit [5]): <2,000 | TLm (96 hrs) (Rainbow trout): 0.5 mg/L | Acute oral toxicity LD50 (mg/kg) (Mallard duck): 5,620 mg/kg
